# From publication PMC8838583, “Inhibition of Human Monoamine Oxidases A and B by Specialized Metabolites Present in Fresh Common Fruits and Vegetables” (Plants, 2022)
# Read-outs that look alike come from different tables or passages of the source.
# How the values were obtained:
# human MAO-A = target: T1, human MAO-A (Homo sapiens, UniProt P21397); test: MAO-Glo bioluminescent MAO-A inhibition assay; format: biochemical; settings: Table 1
# T1 construct: purchased MilliporeSigma (Milan, Italy); host or cells: baculovirus-infected insect cells (BTI-TN-5B1-4)
# T1 sequence (P21397 1-527): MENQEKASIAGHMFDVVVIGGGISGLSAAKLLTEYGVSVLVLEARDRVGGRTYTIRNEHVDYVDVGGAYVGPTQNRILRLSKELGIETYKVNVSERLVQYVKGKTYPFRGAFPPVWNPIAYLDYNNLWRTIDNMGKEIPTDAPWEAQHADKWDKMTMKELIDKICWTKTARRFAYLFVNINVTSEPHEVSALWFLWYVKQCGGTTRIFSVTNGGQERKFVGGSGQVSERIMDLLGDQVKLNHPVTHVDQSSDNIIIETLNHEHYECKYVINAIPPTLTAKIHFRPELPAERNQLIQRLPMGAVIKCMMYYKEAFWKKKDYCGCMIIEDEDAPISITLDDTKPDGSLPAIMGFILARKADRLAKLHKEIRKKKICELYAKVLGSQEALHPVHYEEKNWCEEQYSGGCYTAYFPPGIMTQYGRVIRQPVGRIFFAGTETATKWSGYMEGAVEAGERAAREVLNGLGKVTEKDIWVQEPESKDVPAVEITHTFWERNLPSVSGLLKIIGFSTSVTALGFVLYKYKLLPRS
# human MAO-B = target: T2, human MAO-B (Homo sapiens, UniProt P27338); test: MAO-Glo bioluminescent MAO-B inhibition assay; format: biochemical; settings: for Selectivity of inhibition between MAO-A and MAO-B, in words: comparison of MAO-A and MAO-B IC50 of Table 1
# T2 construct: purchased MilliporeSigma (Milan, Italy); host or cells: baculovirus-infected insect cells (BTI-TN-5B1-4)
# T2 sequence (P27338 1-520): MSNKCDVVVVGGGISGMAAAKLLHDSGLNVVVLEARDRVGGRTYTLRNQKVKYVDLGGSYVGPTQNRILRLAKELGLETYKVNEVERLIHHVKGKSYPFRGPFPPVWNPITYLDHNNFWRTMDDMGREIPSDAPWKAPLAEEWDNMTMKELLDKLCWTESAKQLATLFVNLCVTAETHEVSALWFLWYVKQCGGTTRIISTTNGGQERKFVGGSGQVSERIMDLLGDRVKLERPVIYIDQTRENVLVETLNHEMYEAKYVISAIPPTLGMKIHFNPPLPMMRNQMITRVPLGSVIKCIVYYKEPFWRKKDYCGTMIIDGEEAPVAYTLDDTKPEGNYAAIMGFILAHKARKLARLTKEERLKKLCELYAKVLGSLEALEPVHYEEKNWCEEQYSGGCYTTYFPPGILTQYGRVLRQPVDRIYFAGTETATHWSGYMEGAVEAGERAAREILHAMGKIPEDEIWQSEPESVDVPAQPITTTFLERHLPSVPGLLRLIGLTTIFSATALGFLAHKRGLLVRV
# [1] = parameters: method as in PMID 21370449; settings: after consumption of an apple smoothie; cited from earlier work
# [2] = Table 1, MAO-Glo, mean of quadruplicate determinations, kiwifruit as mg fruit fresh weight/mL, read-out: IC50 Value MAO-B (mg/mL) (converted)
# [3] = Table 1, molarity, standard metabolites, read-out: IC50 Value MAO-B M
# [4] = molarity, standard metabolites, read-out: IC50 Value MAO-A M
IC50 (human MAO-B; [2]) [mM],"IC50 (human MAO-A; MAO-Glo, mean of quadruplicate determinations, kiwifruit as mg fruit fresh weight/mL, read-out: IC50 Value MAO-A (mg/mL) (converted)) [mM]",Compound,"IC50 (human MAO-A; IC50 Value MAO-A (mg/mL), MAO-Glo, mean of quadruplicate determinations, kiwifruit as mg fruit fresh weight/mL) [mM]","IC50 (human MAO-A; IC50 Value MAO-A M, molarity, standard metabolites) [mM]",IC50 (human MAO-B; [3]) [mM],"Selectivity of inhibition between MAO-A and MAO-B, in words (human MAO-B)",Level detected in ileostomy fluids [1],IC50 (human MAO-A; [4]) [mM],"IC50 Value MAO-A (human MAO-A; MAO-Glo, mean of quadruplicate determinations, kiwifruit as mg fruit fresh weight/mL) [µg/mL]","IC50 Value MAO-B (human MAO-B; Table 1, MAO-Glo, mean of quadruplicate determinations, kiwifruit as mg fruit fresh weight/mL) [µg/mL]"
34.3,–,"O=C(O)[C@]1(O)C[C@@H](O)[C@@H](O)[C@H](O)C1 [D-(−)-Quinic acid, D-(−)-quinic acid]",–,–,34.4 ± 1.31,selective activity against MAO-B,~ 70%,–,–,–
0.444,2.72,"O=C(O)/C=C/c1ccc(O)c(O)c1 [Caffeic acid, caffeic acid]",–,–,0.439 ± 0.03,–,–,2.75 ± 0.126,–,–
–,–,(+)-catechin hydrate,–,–,4.03 ± 0.122,inhibited both enzymes similarly,–,6.46 ± 0.121,1880 ± 40,1170 ± 40

Compound,IC50 (human MAO-B; [2]) [mM],"IC50 (human MAO-A; MAO-Glo, mean of quadruplicate determinations, kiwifruit as mg fruit fresh weight/mL, read-out: IC50 Value MAO-A (mg/mL) (converted)) [mM]","IC50 (human MAO-A; IC50 Value MAO-A (mg/mL), MAO-Glo, mean of quadruplicate determinations, kiwifruit as mg fruit fresh weight/mL) [mM]","IC50 (human MAO-A; IC50 Value MAO-A M, molarity, standard metabolites) [mM]",IC50 (human MAO-B; [3]) [mM],"Selectivity of inhibition between MAO-A and MAO-B, in words (human MAO-B)",Level detected in ileostomy fluids [1],IC50 (human MAO-A; [4]) [mM],"IC50 Value MAO-A (human MAO-A; MAO-Glo, mean of quadruplicate determinations, kiwifruit as mg fruit fresh weight/mL) [µg/mL]","IC50 Value MAO-B (human MAO-B; Table 1, MAO-Glo, mean of quadruplicate determinations, kiwifruit as mg fruit fresh weight/mL) [µg/mL]"
O=c1ccc2cc(O[C@@H]3O[C@H](CO)[C@@H](O)[C@H](O)[C@H]3O)c(O)cc2o1 [Esculin],12,–,11.5,11.5 ± 0.43,12.1 ± 0.372,inhibited both enzymes similarly,–,–,–,–
